Test systems include SN12C renal; OVCAR-3 ovarian; SNB-75 CNS; T-47D breast; EKVX NSCLC; A549 NSCLC; UO-31 renal; MDA-MB-231 breast; DU-145 prostate; HOP-92 NSCLC.
What all share (assay): inhibition of tumour cell growth, NCI panel, 48 h

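Method: 48-hour compound exposure of cells in 96-well plates, five concentrations, linear interpolation of endpoints. GI50: concentration for 50% inhibition of growth. At the TGI there is no net growth.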

On to `COC(=O)c1ccc(C2SCC(=O)N2NC(=O)C(O)c2ccccc2)cc1` (stereo not drawn), for which the GI50 in the experiment with SN12C renal, in the experiment on OVCAR-3 ovarian, with SNB-75 CNS, in the experiment on T-47D breast, in the experiment on EKVX NSCLC and in the experiment on A549 NSCLC was greater than 100 µM throughout. Moreover, the GI50 with UO-31 renal, in the experiment with MDA-MB-231 breast, with DU-145 prostate and with HOP-92 NSCLC was greater than 100 µM each time. The TGI with SN12C renal, with OVCAR-3 ovarian, in the experiment on SNB-75 CNS, in the experiment with T-47D breast, in the experiment on EKVX NSCLC and in the experiment on A549 NSCLC was greater than 100 µM each time. Also, the TGI with UO-31 renal, in the experiment with MDA-MB-231 breast, with DU-145 prostate and with HOP-92 NSCLC was greater than 100 µM in each case.
In the case of `COc1cc(NC(N)=NCCC(C)(C)c2ccc(C(F)(F)F)cc2)ncc1C#N`, the GI50 in the experiment with SN12C renal was 1.47 µM; in the experiment with OVCAR-3 ovarian, 1.79 µM; in the experiment with SNB-75 CNS, 1.66 µM; in the experiment with T-47D breast, 1.51 µM; with EKVX NSCLC, 1.4 µM; with A549 NSCLC it was 1.61 µM. Also, the GI50 with UO-31 renal was 1.34 µM; in the experiment with MDA-MB-231 breast, 1.8 µM; with DU-145 prostate, 1.93 µM; in the experiment on HOP-92 NSCLC it was 1.3 µM. Further, the TGI in the experiment with SN12C renal came to 2.82 µM; in the experiment with OVCAR-3 ovarian, 3.5 µM; with SNB-75 CNS, 3.26 µM; with T-47D breast, 3.5 µM; in the experiment on EKVX NSCLC, 2.87 µM; in the experiment with A549 NSCLC, 3.06 µM. Also, the TGI in the experiment with UO-31 renal turned out to be 2.66 µM; with MDA-MB-231 breast, 3.34 µM; in the experiment on DU-145 prostate, 3.51 µM; in the experiment with HOP-92 NSCLC, 2.74 µM.
`O=C(Nc1ccc(Br)cc1F)c1cc(Br)ccc1O`: the GI50 is 0.519 µM in the experiment on SN12C renal; 0.535 µM in the experiment with OVCAR-3 ovarian; 0.768 µM in the experiment on SNB-75 CNS; 0.457 µM in the experiment on T-47D breast; 1.03 µM in the experiment with EKVX NSCLC; 2.11 µM in the experiment with A549 NSCLC. Moreover, the GI50 in the experiment with UO-31 renal is 0.4 µM; in the experiment on MDA-MB-231 breast, 1.09 µM; with DU-145 prostate it was 1.47 µM; in the experiment with HOP-92 NSCLC, 0.177 µM. The TGI in the experiment with SN12C renal was 6.39 µM; with OVCAR-3 ovarian, 8.62 µM; in the experiment on SNB-75 CNS, 5.95 µM; in the experiment on T-47D breast, 6.87 µM; in the experiment on EKVX NSCLC, 11.7 µM; in the experiment on A549 NSCLC it was 16.4 µM. Besides, the TGI in the experiment with UO-31 renal turned out to be 2.8 µM; in the experiment with MDA-MB-231 breast, 4.9 µM; with DU-145 prostate it was 23.1 µM; in the experiment on HOP-92 NSCLC, 0.651 µM.
In the case of `N=c1ccn2c(n1)O[C@@H]1[C@@H](O)[C@H](CO)O[C@@H]12`, the GI50 was 2.86 µM with SN12C renal; 1.58 µM in the experiment with SNB-75 CNS; 8.96 µM in the experiment with T-47D breast; greater than 100 µM in the experiment on EKVX NSCLC; 0.41 µM in the experiment with A549 NSCLC; 1.31 µM in the experiment on UO-31 renal. The GI50 in the experiment on MDA-MB-231 breast is greater than 100 µM; in the experiment with DU-145 prostate, 2.42 µM; in the experiment on HOP-92 NSCLC, 9.94 µM. The TGI was greater than 100 µM in the experiment on SN12C renal; greater than 100 µM in the experiment on OVCAR-3 ovarian; 47.6 µM in the experiment with SNB-75 CNS; greater than 100 µM with T-47D breast; greater than 100 µM with EKVX NSCLC; greater than 100 µM in the experiment on A549 NSCLC. Besides, the TGI in the experiment on UO-31 renal was 20.8 µM; in the experiment on MDA-MB-231 breast it was greater than 100 µM; in the experiment on DU-145 prostate, greater than 100 µM; in the experiment on HOP-92 NSCLC it was greater than 100 µM.
`O=C1c2cccnc2C(=O)c2c1c(C(=O)OCCN1CCOCC1)c1ccccn21`: the GI50 in the experiment on SN12C renal is less than 0.01 µM; with OVCAR-3 ovarian it was 0.0671 µM; in the experiment on SNB-75 CNS it was less than 0.01 µM; in the experiment with T-47D breast, 0.228 µM; in the experiment with EKVX NSCLC, 1.54 µM; in the experiment on A549 NSCLC, 0.0205 µM. Further, the GI50 was less than 0.01 µM in the experiment with UO-31 renal, 0.905 µM in the experiment with MDA-MB-231 breast, less than 0.0175 µM in the experiment on DU-145 prostate and 0.0262 µM in the experiment with HOP-92 NSCLC. Moreover, the TGI with SN12C renal is 1.78 µM; in the experiment with OVCAR-3 ovarian it was 1.11 µM; in the experiment on SNB-75 CNS, 0.572 µM; with T-47D breast, 5.25 µM; with EKVX NSCLC it was 10.1 µM; in the experiment on A549 NSCLC, 1.17 µM. Further, the TGI in the experiment on MDA-MB-231 breast amounted to 41.2 µM; with DU-145 prostate it was 1.31 µM; with HOP-92 NSCLC it was 0.319 µM.
Regarding `Cn1c(=S)sc2nc3ccccc3n2c1=S`, the TGI with SN12C renal turned out to be 39.1 µM; in the experiment with OVCAR-3 ovarian it was 25.4 µM; in the experiment with SNB-75 CNS, 48.8 µM; with T-47D breast, 39.6 µM; with EKVX NSCLC it was 44.6 µM; with A549 NSCLC it was 97.5 µM. The TGI in the experiment with UO-31 renal stood at 18.8 µM; in the experiment with MDA-MB-231 breast, 38 µM; in the experiment on DU-145 prostate, 19 µM; in the experiment on HOP-92 NSCLC, 25.8 µM.
Turning to `O=C(O)/C=C\C(=O)Nc1ccc2c(c1)C(=O)c1cc(F)ccc1-2`, the TGI in the experiment with SN12C renal, in the experiment with OVCAR-3 ovarian, in the experiment on SNB-75 CNS, in the experiment with T-47D breast, in the experiment with EKVX NSCLC and in the experiment on A549 NSCLC was greater than 100 µM each time. For the same compound, the TGI in the experiment with UO-31 renal, with MDA-MB-231 breast, with DU-145 prostate and in the experiment with HOP-92 NSCLC was greater than 100 µM each time.
For the compound `O=C1c2ccccc2C(=O)c2c1ccc1c2OCO1`, the TGI in the experiment on SN12C renal, with OVCAR-3 ovarian, in the experiment with SNB-75 CNS, in the experiment with T-47D breast, with EKVX NSCLC and in the experiment on A549 NSCLC was greater than 100 µM each time. Further, the TGI in the experiment on UO-31 renal, in the experiment with MDA-MB-231 breast, in the experiment on DU-145 prostate and in the experiment on HOP-92 NSCLC was greater than 100 µM throughout.
Turning to `Nc1nc2c(c3cnccc13)C(c1cccc(Cl)c1)Cc1cnccc1-2` (stereo not drawn), the GI50 in the experiment with SN12C renal was 0.668 µM; with OVCAR-3 ovarian, 0.293 µM; in the experiment with SNB-75 CNS, 0.38 µM; in the experiment with T-47D breast, 0.384 µM; in the experiment with EKVX NSCLC, 0.441 µM; with A549 NSCLC, 0.552 µM. The GI50 in the experiment with UO-31 renal is 0.841 µM; in the experiment with MDA-MB-231 breast it was 0.763 µM; with DU-145 prostate, 0.309 µM; in the experiment on HOP-92 NSCLC, 0.811 µM. Also, the TGI is 14.4 µM in the experiment on SN12C renal; 13.1 µM in the experiment on OVCAR-3 ovarian; 17.8 µM in the experiment on SNB-75 CNS; 25.2 µM in the experiment with T-47D breast; 15.1 µM in the experiment on EKVX NSCLC; 10.6 µM with A549 NSCLC. For the same compound, the TGI worked out at 14.8 µM in the experiment on UO-31 renal, 11 µM with MDA-MB-231 breast, 4.65 µM with DU-145 prostate and 18.2 µM in the experiment with HOP-92 NSCLC.

The record behind these values is PubChem BioAssay (NCI).
